The record followed here is Sander's compilation of Henry's law constants (doi:10.1021/je300954s).

A short description of this data set: Henry solubility constant Hcp at 298.15 K (mol/(m3 Pa)). The following applies: reference: Lee et al. (2012).
Regarding `c1ccc2c(c1)-c1cccc3cccc-2c13` [benzo[jk]fluorene], the “Henry solubility constant Hcp” value amounted to 0.34.

As for `c1ccc2c(c1)ccc1c3ccccc3ccc21` [chrysene], the “Henry solubility constant Hcp” value is 2.1. For `c1ccc2cc3ccccc3cc2c1` [anthracene] the value was 0.16; for `c1ccc2c(c1)Cc1ccccc1-2` [2,3-benzindene], 0.32; for `c1ccc2c(c1)ccc1ccccc12` [phenanthrene], 0.18. For `CC(=O)c1c(C)c([N+](=O)[O-])c(C(C)(C)C)c([N+](=O)[O-])c1C` [musk ketone] the value was 3; for `CCCCOC(=O)c1ccccc1C(=O)OCc1ccccc1` [butyl benzyl phthalate], 100. In the case of `c1ccc2c(c1)cc1ccc3cccc4ccc2c1c34` [benzo[a]pyrene] it was 6.2.

Regarding `c1cc2c3c(cccc3c1)CC2` [acenaphthene], the “Henry solubility constant Hcp” value was 0.26. In the case of `c1ccc2ccccc2c1` [naphthalene], the “Henry solubility constant Hcp” value was 0.06.

With `Clc1cccc(Cl)c1Cl` [1,2,3-trichlorobenzene], the “Henry solubility constant Hcp” value was found to be 0.008. As to `c1ccc2cc3c(cc2c1)-c1cccc2cccc-3c12` [benzo[k]fluoranthene], the “Henry solubility constant Hcp” value was 10. For `Clc1cc(Cl)c(Cl)cc1Cl` [1,2,4,5-tetrachlorobenzene] the value was 0.0066; for `CCCCOC(=O)c1ccccc1C(=O)OCCCC` [dibutyl phthalate], 9.3.

On to `Cc1c([N+](=O)[O-])c(C)c([N+](=O)[O-])c(C(C)(C)C)c1[N+](=O)[O-]` [2,4,6-trinitro-1,3-dimethyl-5-tert-butylbenzene], for which the “Henry solubility constant Hcp” value was determined as 0.32.
